Data on three molecules can be found in patent publication US4761410A, “Cephem Compounds” (Fujisawa Pharmaceutical Co., Ltd., priority 1985, dated 1988).

Assay [1] has as its system Escherichia coli 29. Nature of the assay: In vitro antibacterial activity (MIC) by two-fold agar-plate dilution method, Escherichia coli 29. The assay is classed as cell-based. The following applies: heart infusion agar, 37° C., 20 hours, read-out: MIC (minimal inhibitory concentration). The protocol: (§1) In vitro antibacterial activity was determined by the two-fold agar-plate dilution method as described below.
(§2) One loopful of an overnight culture of each test strain in Trypticase-soy broth (10^8 viable cells per ml) was streaked on heart infusion agar HI-agar) containing graded concentrations of representative test compound, and the minimal inhibitory concentration (MIC) was expressed in terms of μg/ml after incubation at 37° C. for 20 hours.

In assay [2] the test system is Proteus vulgaris IAM 1025. Nature of the assay: In vitro antibacterial activity (MIC) by two-fold agar-plate dilution method, Proteus vulgaris IAM 1025. The assay is classed as cell-based. Conditions: IAM1025, heart infusion agar, 37° C., 20 hours, read-out: MIC (minimal inhibitory concentration). The protocol: as §1, §2

The structures appear in SMILES notation. In brackets after ≈: the same amount, converted by molar mass. Bounds are passed on as bounds.

Consider `Cc1ccc[n+](CC2=C(C(=O)[O-])N3C(=O)C(NC(=O)/C(=N\OC(F)F)c4csc(N)n4)C3SC2)c1` (stereo not drawn) [Test Compound (1), 7-[2-(2-Aminothiazol-4-yl)-2-difluoromethoxyiminoacetamido]-3-(3-methyl-1-pyridiniomethyl)-3-cephem-4-carboxylate], for which the MIC in assay [1] and in assay [2] was not above 0.025 µg/mL in each case.
Regarding `Cc1nsc(SCC2=C(C(=O)O)N3C(=O)C(NC(=O)/C(=N\OC(F)F)c4csc(N)n4)C3SC2)n1` (stereo not drawn) [Test Compound (2), 7-[2-(2-Aminothiazol-4-yl)-2-difluoromethoxyiminoacetamido]-3-(3-methyl-1,2,4-thiadiazol-5-yl)thiomethyl-3-cephem-4-carboxylic acid], the MIC in assay [1] stood at 0.2 µg/mL (≈ 0.355 µM); in assay [2] it was 0.05 µg/mL (≈ 0.0887 µM).
As for `Nc1nc(/C(=N/OC(F)F)C(=O)NC2C(=O)N3C(C(=O)O)=C(CSc4ncns4)CSC23)cs1` (stereo not drawn) [Test Compound (3), 7-[2-(2-Aminothiazol-4-yl)-2-difluoromethoxyiminoacetamido]-3-(1,2,4-thiadiazol-5-yl)thiomethyl-3-cephem-4-carboxylic acid], the MIC is 0.1 µg/mL (≈ 0.182 µM) in assay [1] and not above 0.025 µg/mL in assay [2].
